Where two headings read alike, the source gives them in different places.
Key:
Format in all cases: in vivo
Kochia (Kochia scoparia) [1] = experiment: Test A preemergence; settings: Bassia scoparia, pre-emergence, 240 h; for pest or weed control at 125 g/ha: 125 g ai/ha; for pest or weed control at 500 g/ha: 500 g ai/ha
In short: (§1)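 Preemergence soil spray on seeded pots or post-emergence spray on 1–2 leaf plants, in loam–sand blend. Greenhouse ~10 d. Visual rating 0–100 against untreated plants.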

[2] = tested on: barnyardgrass (Echinochloa crus-galli); experiment: Test A preemergence; settings: Echinochloa crus-galli, pre-emergence, 240 h; for pest or weed control at 125 g/ha: 125 g ai/ha; for pest or weed control at 500 g/ha: 500 g ai/ha
In short: as §1

[3] = tested on: ragweed (common ragweed, Ambrosia elatior); experiment: Test A preemergence; settings: Ambrosia artemisiifolia, pre-emergence, 240 h; for pest or weed control at 125 g/ha: 125 g ai/ha; for pest or weed control at 500 g/ha: 500 g ai/ha
In short: as §1

[4] = tested on: giant foxtail (Setaria faberii); experiment: Test A preemergence; settings: Setaria faberi, pre-emergence, 240 h; for pest or weed control at 125 g/ha: 125 g ai/ha; for pest or weed control at 500 g/ha: 500 g ai/ha
In short: as §1

[5] = tested on: ryegrass, Italian (Italian ryegrass, Lolium multiflorum); experiment: Test A preemergence; settings: Lolium multiflorum, pre-emergence, 240 h; for pest or weed control at 125 g/ha: 125 g ai/ha; for pest or weed control at 500 g/ha: 500 g ai/ha
In short: as §1

[6] = tested on: pigweed (Amaranthus retroflexus); experiment: Test A preemergence; settings: Amaranthus retroflexus, pre-emergence, 240 h; for pest or weed control at 125 g/ha: 125 g ai/ha; for pest or weed control at 500 g/ha: 500 g ai/ha
rice (Oryra sativa) = experiment: Test B flooded paddy test; settings: 250 g ai/ha, Flood, 0 to 100 scale where 0 is no effect and 100 is complete control
In short: (§2)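 Compound goes directly into floodwater once pots are flooded 3 cm above soil, targeting plants at two leaves; the water depth is then held for the test duration. Plants sit 13–15 d in a greenhouse and are rated visually, 100 denoting complete control.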

[7] = tested on: barnyardgrass (Echinochloa crus-galli); experiment: Test B flooded paddy test; settings: 250 g ai/ha, Flood, 0 to 100 scale where 0 is no effect and 100 is complete control
In short: as §2

[8] = tested on: ducksalad (Heteranthera limosa); experiment: Test B flooded paddy test; settings: 250 g ai/ha, Flood, 0 to 100 scale where 0 is no effect and 100 is complete control
In short: as §2

[9] = tested on: sedge, umbrella (small-flower umbrella sedge, Cyperus difformis); experiment: Test B flooded paddy test; settings: 250 g ai/ha, Flood, 0 to 100 scale where 0 is no effect and 100 is complete control
In short: as §2

Kochia (Kochia scoparia) [10] = experiment: Test A postemergence; settings: Bassia scoparia, post-emergence, 240 h; for pest or weed control at 125 g/ha: 125 g ai/ha; for pest or weed control at 500 g/ha: 500 g ai/ha
In short: as §1

[11] = tested on: barnyardgrass (Echinochloa crus-galli); experiment: Test A postemergence; settings: Echinochloa crus-galli, post-emergence, 240 h; for pest or weed control at 125 g/ha: 125 g ai/ha; for pest or weed control at 500 g/ha: 500 g ai/ha
In short: as §1

[12] = tested on: giant foxtail (Setaria faberii); experiment: Test A postemergence; settings: Setaria faberi, post-emergence, 240 h; for pest or weed control at 125 g/ha: 125 g ai/ha; for pest or weed control at 500 g/ha: 500 g ai/ha
In short: as §1

[13] = tested on: wheat (Triticum aestivum); experiment: Test A postemergence; settings: Triticum aestivum, post-emergence, 240 h; for plant injury at 125 g/ha: 125 g ai/ha; for plant injury at 500 g/ha: 500 g ai/ha
In short: as §1

## O=C1NC[C@H](c2ccc(F)c(OC(F)(F)C(F)F)c2)[C@H]1C(=O)Nc1ccc(F)cc1F (racemic) [Compound 1154]
Kochia (Kochia scoparia) [1]; preemergence, 0 to 100 scale where 0 is no effect and 100 is complete control, approx. 10 d, read-out: Kochia plant response rating
  pest or weed control at 125 g/ha: 70%
Kochia (Kochia scoparia) [1]; preemergence, 0 to 100 scale where 0 is no effect and 100 is complete control, read-out: Kochia plant response rating
  pest or weed control at 500 g/ha: 90%
[2]; preemergence, 0 to 100 scale where 0 is no effect and 100 is complete control, approx. 10 d, read-out: Barnyardgrass plant response rating
  pest or weed control at 125 g/ha: 90%
[2]; preemergence, 0 to 100 scale where 0 is no effect and 100 is complete control, read-out: Barnyardgrass plant response rating
  pest or weed control at 500 g/ha: 90%
[3]; preemergence, 0 to 100 scale where 0 is no effect and 100 is complete control, approx. 10 d, read-out: Ragweed plant response rating
  pest or weed control at 125 g/ha: 20%
[3]; preemergence, 0 to 100 scale where 0 is no effect and 100 is complete control, read-out: Ragweed plant response rating
  pest or weed control at 500 g/ha: 90%
[4]; preemergence, 0 to 100 scale where 0 is no effect and 100 is complete control, approx. 10 d, read-out: Foxtail, Giant plant response rating
  pest or weed control at 125 g/ha: 90%
[4]; preemergence, 0 to 100 scale where 0 is no effect and 100 is complete control, read-out: Foxtail, Giant plant response rating
  pest or weed control at 500 g/ha: 90%
[5]; preemergence, 0 to 100 scale where 0 is no effect and 100 is complete control, approx. 10 d, read-out: Ryegrass, Italian plant response rating
  pest or weed control at 125 g/ha: 30%
[5]; preemergence, 0 to 100 scale where 0 is no effect and 100 is complete control, read-out: Ryegrass, Italian plant response rating
  pest or weed control at 500 g/ha: 50%
[6]; preemergence, 0 to 100 scale where 0 is no effect and 100 is complete control, approx. 10 d, read-out: Pigweed plant response rating
  pest or weed control at 125 g/ha: 60%
[6]; preemergence, 0 to 100 scale where 0 is no effect and 100 is complete control, read-out: Pigweed plant response rating
  pest or weed control at 500 g/ha: 80%
Rice (Oryra sativa); Oryza sativa, read-out: Rice plant response rating
  pest or weed control at 250 g/ha: 30%
[7]; Echinochloa crus-galli, read-out: Barnyardgrass plant response rating
  pest or weed control at 250 g/ha: 30%
[8]; Heteranthera limosa, read-out: Ducksalad plant response rating
  pest or weed control at 250 g/ha: 100%
[9]; Cyperus difformis, read-out: Sedge, Umbrella plant response rating
  pest or weed control at 250 g/ha: 0%
Kochia (Kochia scoparia) [10]; postemergence, visual injury on 0 to 100 scale (0 no effect, 100 complete control), approx. 10 d, read-out: Kochia plant response rating
  pest or weed control at 125 g/ha: 60%
Kochia (Kochia scoparia) [10]; postemergence, 0 to 100 scale, 0 is no effect, 100 is complete control, read-out: Kochia plant response rating
  pest or weed control at 500 g/ha: 60%
[11]; postemergence, visual injury on 0 to 100 scale (0 no effect, 100 complete control), approx. 10 d, read-out: Barnyardgrass plant response rating
  pest or weed control at 125 g/ha: 70%
[11]; postemergence, 0 to 100 scale, 0 is no effect, 100 is complete control, read-out: Barnyardgrass plant response rating
  pest or weed control at 500 g/ha: 90%
[12]; postemergence, visual injury on 0 to 100 scale (0 no effect, 100 complete control), approx. 10 d, read-out: Foxtail, Giant plant response rating
  pest or weed control at 125 g/ha: 90%
[12]; postemergence, 0 to 100 scale, 0 is no effect, 100 is complete control, read-out: Foxtail, Giant plant response rating
  pest or weed control at 500 g/ha: 60%
[13]; postemergence, visual injury vs untreated controls after approx. 10 d, 0 = no effect, 100 = complete control, read-out: Wheat plant response rating (0 to 100 scale)
  plant injury at 125 g/ha: 40%
[13]; postemergence, 0 to 100 scale, 0 is no effect, 100 is complete control, read-out: Wheat plant response rating
  plant injury at 500 g/ha: 80%

## CN1C[C@H](c2ccc(C(F)(F)F)cc2)[C@@H](C(=O)Nc2ccccc2F)C1=O [Compound 622, (3S,4S)—N-(2-fluorophenyl)-1-methyl-2-oxo-4-[4-(trifluoromethyl)phenyl]-3-pyrrolidinecarboxamide]
Kochia (Kochia scoparia) [1]; Preemergence, visual injury after approximately 10 d, 0 to 100 scale where 0 is no effect and 100 is complete control, read-out: Plant response rating, Kochia
  pest or weed control at 125 g/ha: 80%
Kochia (Kochia scoparia) [1]; preemergence, 0 to 100 scale, 0 = no effect, 100 = complete control, read-out: Plant response rating, Kochia
  pest or weed control at 500 g/ha: 80%
[2]; Preemergence, visual injury after approximately 10 d, 0 to 100 scale where 0 is no effect and 100 is complete control, read-out: Plant response rating, Barnyardgrass
  pest or weed control at 125 g/ha: 90%
[2]; preemergence, 0 to 100 scale, 0 = no effect, 100 = complete control, read-out: Plant response rating, Barnyardgrass
  pest or weed control at 500 g/ha: 90%
[3]; Preemergence, visual injury after approximately 10 d, 0 to 100 scale where 0 is no effect and 100 is complete control, read-out: Plant response rating, Ragweed
  pest or weed control at 125 g/ha: 60%
[3]; preemergence, 0 to 100 scale, 0 = no effect, 100 = complete control, read-out: Plant response rating, Ragweed
  pest or weed control at 500 g/ha: 60%
[4]; Preemergence, visual injury after approximately 10 d, 0 to 100 scale where 0 is no effect and 100 is complete control, read-out: Plant response rating, Foxtail, Giant
  pest or weed control at 125 g/ha: 90%
[4]; preemergence, 0 to 100 scale, 0 = no effect, 100 = complete control, read-out: Plant response rating, Foxtail, Giant
  pest or weed control at 500 g/ha: 90%
[5]; Preemergence, visual injury after approximately 10 d, 0 to 100 scale where 0 is no effect and 100 is complete control, read-out: Plant response rating, Ryegrass, Italian
  pest or weed control at 125 g/ha: 40%
[5]; preemergence, 0 to 100 scale, 0 = no effect, 100 = complete control, read-out: Plant response rating, Ryegrass, Italian
  pest or weed control at 500 g/ha: 40%
[6]; Preemergence, visual injury after approximately 10 d, 0 to 100 scale where 0 is no effect and 100 is complete control, read-out: Plant response rating, Pigweed
  pest or weed control at 125 g/ha: 80%
[6]; preemergence, 0 to 100 scale, 0 = no effect, 100 = complete control, read-out: Plant response rating, Pigweed
  pest or weed control at 500 g/ha: 80%
Rice (Oryra sativa); 13 to 15 d
  Plant response rating, Rice: 0
[7]; 13 to 15 d
  Plant response rating, Barnyardgrass: 70
[8]; 13 to 15 d
  Plant response rating, Ducksalad: 100
[9]; 13 to 15 d
  Plant response rating, Sedge, Umbrella: 0
Kochia (Kochia scoparia) [10]; postemergence, visual rating after approx. 10 d, 0 to 100 scale (0 no effect, 100 complete control), read-out: Plant response rating, Kochia
  pest or weed control at 125 g/ha: 40%
Kochia (Kochia scoparia) [10]; Postemergence, 0 to 100 scale where 0 is no effect and 100 is complete control, read-out: Plant response rating, Kochia
  pest or weed control at 500 g/ha: 60%
[11]; postemergence, visual rating after approx. 10 d, 0 to 100 scale (0 no effect, 100 complete control), read-out: Plant response rating, Barnyardgrass
  pest or weed control at 125 g/ha: 90%
[11]; Postemergence, 0 to 100 scale where 0 is no effect and 100 is complete control, read-out: Plant response rating, Barnyardgrass
  pest or weed control at 500 g/ha: 90%
[12]; postemergence, visual rating after approx. 10 d, 0 to 100 scale (0 no effect, 100 complete control), read-out: Plant response rating, Foxtail, Giant
  pest or weed control at 125 g/ha: 80%
[12]; Postemergence, 0 to 100 scale where 0 is no effect and 100 is complete control, read-out: Plant response rating, Foxtail, Giant
  pest or weed control at 500 g/ha: 90%
[13]; postemergence, visual rating after approx. 10 d, 0 to 100 scale (0 no effect, 100 complete control), read-out: Plant response rating, Wheat
  plant injury at 125 g/ha: 30%
[13]; Postemergence, 0 to 100 scale where 0 is no effect and 100 is complete control, read-out: Plant response rating, Wheat
  plant injury at 500 g/ha: 70%

Source: patent US12077503B2, “Substituted cyclic amides and their use as herbicides” (FMC CORPORATION, priority 2015, dated 2024)
